Results on one molecule are retold here after US9107954B2, “Bivalent ligands for the treatment of neurological disorders” (Virginia Commonwealth University, priority 2012, dated 2015).

Data set [1] has as its system R5-tropic HIV-1SF162 in primary human astrocytes. The experiment in a line: HIV-1SF162 infectivity, Tat luciferase reporter assay in primary human astrocytes. The data set is classed as cell-based. As to the method:
Primary human astrocytes (ScienCell catalog #1901) were cultured in 24-well plates and transfected with the plasmid pBlue3′LTR-luc (NIH AIDS Research and Reference Reagent Program) using Lipofectamine 2000 (Invitrogen) followed by infection with HIV-1. After 18-20 h cells were rinsed twice in 1×PBS then lysed in Cell Culture Lysis Reagent (Promega) and relative Tat protein expression was determined by measuring luciferase activity using the Luciferase Assay System (Promega; catalog # E1500). Light units were measured using a PHERAstar FS plate reader (BMG Labtech).
Primary human astroglial cells were infected by incubation with the neurotropic HIV-1 strain SF162. A concentration of HIV-1 p24 50 pg/10^6 cells was used, and a no virus condition served as a negative control. Viral stocks were quantified by assaying for HIV-1 p24 (Alliance p24 Antigen ELISA Kit; Advanced Bioscience, Kensington, Md.).
HIV-1SF162 infectivity of human astroglia was determined based on the relative amount of Tat protein expressed by the virus using a luciferase-based reporter assay. Reporters under the control of the long terminal repeat (LTR) viral promoter are a robust means of measuring HIV-1 infection, since the LTR is activated by HIV-1 Tat, which is only expressed by infected cells.
As the bivalent ligand 1 has been designed as a molecular probe to study the underlying mechanisms of opioid-enhanced NeuroAIDS by targeting the MOR-CCR5 heterodimerization, a luciferase-based HIV-1SF162) infection assay measuring the relative transactivator of transcription (Tat) protein expression in human astrocytes was performed (FIG. 15). Tat is encoded by HIV-1 and is the first protein to be produced after HIV-1 infection. Thus, Tat expression level is directly proportioned to the extent of HIV-1 invasion. Astrocytes were chosen based on the following facts: first, astrocytes express both the MOR and the CCR5. Second, the human blood-brain barrier (BBB) is composed of interacting adjacent cerebral endothelial cells (CECs) and astrocytes, which makes astrocytes a readily accessible target during the course of HIV infection. Thirdly, during NeuroAIDS development astroglia are important cellular sites within the CNS where opioids synergistically potentiate the pathophysiological effects of HIV-1 infection.

Data set [2] deals with TNF-α. In words: Cytokine release ELISA, HIV-1 infected astroglia supernatant: TNF-α. The settings on record: 18-20 h; bivalent ligand ± morphine. Format: cell-based, human. As to the method: The protein levels of the cytokines TNF-α, IL-6, IL-1β and the chemokine RANTES were measured by ELISA (Quantikine kits; R&D Systems Minneapolis, Minn.).
After 18-20 h exposure, supernatant was removed and analyzed by ELISA to quantitatively analyze the release of the cytokines TNF-α, IL-1β and IL-6 and the chemokine RANTES.
For orientation: In an ELISA, binding on a coated surface is turned into a signal by an enzyme label.

For data set [3], the target named is MOR (Homo sapiens (Human), UniProt P35372). The experiment in a line: DAMGO-stimulated Ca2+ flux assay in hMOR-CHO cells transfected with Gqi5. The data set is classed as cell-based. For orientation: A change in cytosolic calcium serves as a functional read-out for many receptors and channels.
Data set [4] concerns the target CCR5 (Macaca mulatta (Rhesus macaque), UniProt P61813). In words: CCR5 competitive radioligand binding, [125I]MIP-1α, Chem-1 cell membrane preparations. As to conditions: mean of three experiments, read-out: Radioligand binding Ki ± SEM. As to the method: Afterwards, the pharmacological profile of bivalent ligand 1 at the chemokine receptor CCR5 was characterized similarly. The competitive radioligand binding assay was conducted in CCR5 rhesus macaque membrane preparations from Chem-1 cells.

Data set [5] concerns human astrocytes. In words: Cytotoxicity assay, AOPI live/dead labeling of human astrocytes. The data set is classed as cell-based. As for the experimental part: Cell viability was assessed by measurement of both live and dead cells using dual (green/red) fluorescence labeling with AOPI analyzed with Cellometer Vision CBA (Nexcelom Bioscience LLC).
To determine whether HIV-1±morphine exposure affected astrocyte viability in the presence or absence of MVC or the bivalent compound, a cell death assay was performed at 24 h after treatment.

For data set [6], the target named is CCR5 (Homo sapiens (Human), UniProt P51681). In words: Calcium mobilization assay in MOLT-4/CCR5 cells, RANTES-stimulated (Example 1). The data set is classed as cell-based. The settings on record: CCR5/MOLT-4 cells. As for the experimental part: The ligands were first tested with various doses (in the range of 0.1 nM to 1 μM) for possible agonist activity. The protocol was the same for the following antagonism study, except no CCL5 (RANTES) was added. MOLT-4/CCR5 cells were plated in black 96-well plates with transparent bottom (Greinier Bio-one) at 100,000 cells per well in 50:1 HBSS:HEPES assay buffer. They were incubated for 1 hour at 37° C. and 5% CO2 with control buffer or varying concentration of ligand for a total volume of 130 μL per well. Cells were then incubated with 50 μL of Fluo-4-AM loading buffer (40 μL 2 μM Fluo-4 dye, 100 μL 2.5 mM probenacid, in 5 mL assay buffer) for an additional hour. Then 20μL 200 nM RANTES solution in assay buffer or assay buffer alone were added to the wells right before changes in Ca^2+ concentration were monitored by RFU for 90 seconds using a microplate reader (FlexStation3, Molecular Devices). Peak values were obtained using SoftMaxPro software (Molecular Devices) and non-linear regression curves were generated using Prism (GraphPad) to calculate IC50 values.
Sequence of CCR5 (Homo sapiens (Human), UniProt P51681) (P51681 whole entry): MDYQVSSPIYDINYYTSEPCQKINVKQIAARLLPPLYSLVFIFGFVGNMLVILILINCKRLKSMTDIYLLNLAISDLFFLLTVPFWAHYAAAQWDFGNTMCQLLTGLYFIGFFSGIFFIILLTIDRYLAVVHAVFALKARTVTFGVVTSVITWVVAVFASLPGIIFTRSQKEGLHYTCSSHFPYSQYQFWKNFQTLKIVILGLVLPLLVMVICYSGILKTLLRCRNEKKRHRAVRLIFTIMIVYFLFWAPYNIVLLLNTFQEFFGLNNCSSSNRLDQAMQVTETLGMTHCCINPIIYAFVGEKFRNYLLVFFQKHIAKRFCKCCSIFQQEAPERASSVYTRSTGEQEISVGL

The target in data set [7] is mu opioid receptor (MOR) (Homo sapiens (Human), UniProt P35372). In words: MOR competitive radioligand binding, [3H]naloxone, hMOR-expressed CHO cells. The settings on record: Example 1, read-out: binding affinity to the mu opioid receptor, Ki. As for the experimental part: MOR/CHO cell culture and membrane homogenate preparation followed literature report^52.
Saturation binding was performed by incubating membranes for 90 minutes at 30° C. with 0.5-15 nM [^3H]naloxone in assay buffer in a 0.5 mL volume. […] The reaction was terminated by rapid filtration through Whatman GF/B glass fiber filters, followed by 3 washes with 3 mL ice-cold Tris buffer. Bound radioactivity will be determined by liquid scintillation spectrophotometry at 45% efficiency for [^3H].
For competition binding assay (agonists or antagonists), Hill plots linear regression analysis and the Cheng-Prusoff equation were applied to determine the IC50 and Ki values. In [^35S]GTPγS binding assays, agonist concentration effect curves were fit by non-linear regression to obtain Emax and EC50 values; antagonist inhibition of agonist-stimulated [^35S]GTPγS binding was analyzed by Hill analysis and AD50 values were corrected to Ki values using the Cheng-Prusoff equation. All analyses were using Prism 4.0.
Herein is reported the characterization of this novel molecular probe in for its binding affinity, Ca^2+ flux functional activity, and HIV-1 inhibition potency.

The subject of data set [8] is HIV-1 in microglia. In words: HIV-1 entry in microglia (data not shown). Format: cell-based. The settings on record: at the concentrations used (100 nM).

The IC50 is the midpoint of a concentration-inhibition curve. Usually Ki stands for a measure of affinity in units of concentration, obtained from inhibition or displacement. As to `Cc1nnc(C(C)C)n1C1CC2CCC(C1)N2CC[C@H](NC(=O)C1CCC(F)(F)CC1)c1ccc(NC(=O)COCC(=O)NCCCCCCCNC(=O)COCC(=O)N[C@@H]2CC[C@@]3(O)[C@H]4Cc5ccc(O)c6c5[C@@]3(CCN4CC3CC3)[C@H]2O6)cc1` (some centres unmarked) [bivalent ligand 1], in data set [1], the “potency in HIV-1 entry inhibition relative to the mixture of maraviroc and naltrexone” value was “two times”. Also, the “decrease in Tat expression compared to maraviroc alone or the combination of maraviroc and naltrexone” value in data set [1] (100 nM) is recorded as “two-fold”. In addition, the “fold decrease in Tat expression compared to MVC with NTX plus morphine, bivalent compound plus morphine” value in data set [1] (100 nM + morphine 500 nM) worked out at 4.4 fold. In data set [1] (100 nM + morphine 500 nM), the “fold decrease in Tat expression compared to R5 plus MVC, bivalent compound plus morphine” value was found to be 2.9 fold. Also, the “fold decrease in Tat expression compared to R5 HIV-1 alone” value in data set [1] (100 nM, 18-20 h post-infection, no morphine) came to 4.4 fold. Moreover, in data set [1] (100 nM, morphine 500 nM, Example 3), the “fold decrease in virus entry compared to maraviroc with morphine” value amounted to 7 fold. In addition, the “fold decrease in virus entry compared to maraviroc alone” value in data set [1] (100 nM, without morphine, Example 3) stood at 3.3 fold. Also, in data set [1] (bivalent ligand 100 nM, no morphine), the “fold decrease in Tat expression compared to R5 plus MVC” value is recorded as 2.0 fold. In addition, the “effect of morphine stimulation on potency” value in data set [1] (morphine 500 nM) is “no effect”. Also, in data set [2], the “fold decrease in TNF-α release compared to R5 HIV-1 alone” value worked out at 2.0 fold. In addition, in data set [3], the “fold reduction of potency to antagonize DAMGO-induced Ca2+ flux compared to naltrexone” value is given as “less than 5 fold”. For the same molecule, the IC50 came to 40 ± 4.8 nM in data set [3] (DAMGO stimulated, hMOR-CHO Gqi5, read-out: Ca2+ inhibition IC50 ± SEM) and 231 ± 88 nM in data set [6] (RANTES, read-out: calcium flux inhibition IC50). In addition, the “agonism in Ca2+ mobilization assay” value in data set [3] (hMOR-CHO Gqi5, data not shown) is reported as “No agonism”. Also, the Ki in data set [4] is 239 ± 56 nM; in data set [7], 51.8 ± 7.9 nM. In addition, the astrocyte viability entry in data set [5] (100 nM, HIV-1 ± morphine, 24 h) is “did not significantly affect the survival”. The “toxicity in the astrocytes, cytotoxicity assays (not shown)” value in data set [5] (Example 3) is “neither maraviroc nor 1 had any toxicity”. Also, the “agonism in calcium mobilization assay” value in data set [6] (no RANTES added) was “no agonism”. In addition, the “antiviral effect in microglia” value in data set [8] is “only detected in astrocytes and not in microglia”.
